Laboratory results as given in patent US20210317102A1, “INHIBITORS OF INTEGRATED STRESS RESPONSE PATHWAY” (Praxis Biotech LLC, priority 2019, published 2021).

Legend:
Assay type in all cases: cell-based
[1] = tested on: ATF4 expression, HEK293T cells carrying the ATF4 luciferase reporter; test: ATF4 expression inhibition assay (ATF4 luciferase reporter); conditions: Homo sapiens, HEK-293T, 100 nM thapsigargin, 3 hours
Procedure, shortened: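 Stable HEK293T line expressing firefly luciferase behind the human full-length ATF4 5′UTR; cells stressed with 100 nM thapsigargin alongside compound (1 nM–10 μM) for 3 h at 37 °C. Luminescence normalized to Tg alone (0% inhibition) and untreated cells (100% inhibition) to give % ATF4 inhibition.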

[2] = tested on: Chinese hamster ovary (CHO) cells; test: Protein synthesis assay (puromycin incorporation, western blot); conditions: Cricetulus griseus; unstressed CHO cells (without Tg), 1 μM test compound, 2 hours; media alone = 100%; read-out: % Protein synthesis relative to untreated (1 μM test compound)
Procedure, shortened: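 CHO cells treated 2 h with 1 μM compound alone, or with 300 nM thapsigargin plus 1 μM compound, then pulsed 30 min with 10 μg/ml puromycin. Puromycin incorporation read by anti-puromycin western blot with densitometry. Unstressed values normalized to media alone (100%); stressed recovery normalized to media alone (100%) and Tg alone (0%).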

[3] = tested on: L-Wnt-3A cells; test: Secretion of Wnt-3A by L-Wnt-3A cells; conditions: 1 µM compound 10, DMEM with reduced FBS (1%), 24 hours, vs vehicle
Procedure: L-Wnt-3A cells (ATCC® CRL-2647™) were maintained at 37° C. and 5% CO2 in DMEM supplemented with 10% fetal bovine serum (FBS), 2 mM L-glutamine, 100 U/ml penicillin, and 100 μg/ml streptomycin. After reaching 80% of confluence, cells were detached and seeded on 6-well plates in complete media, allowed to recover for 48 h. Cells were then washed three times with PBS and treated with vehicle (1% DMSO) or 1 µM compound 10 in DMEM with reduced FBS (1%) for 24 hours. Then, culture media with cells were recovered in microtubes and centrifuged at 500 g for 5 minutes. Supernatants (SN) which contain secreted proteins were extracted and protease and phosphatase inhibitors (Roche) were added to each sample. SN were centrifuged at 2,000 g for 10 min to discard any cellular debris and 900 μL SN were transferred to empty microtubes with […] methanol by mixing well. 200 μL of chloroform was added to the mix and then samples were centrifuged at 14,000 g for 2 minutes. […] Quantification of protein bands was done by densitometry using ImageJ software.
Percent of secreted Wnt-3A by L-Wnt3A cells treated with vehicle or compound 10 from two independent experiments is shown in FIG. 5. Percentage was calculated as the percent relative to […] secretion levels from L-Wnt-3A cells treated with vehicle which correspond to 100%.

O=C(COc1ccc(Cl)c(F)c1)N[C@H]1CC[C@H](CNC(=O)c2ccc3cc(Cl)ccc3n2)CC1 [Compound 10, trans-6-chloro-N-((4-(2-(4-chloro-3-fluorophenoxy)acetamido)cyclohexyl)methyl)quinoline-2-carboxamide]
IC50 [1]: 106 nM
activity at 1 µM [2]: 229%
Secretion of Wnt-3A [3]: increased the secretion of a particular protein (Wnt-3A)
